pIC50: −log10 of the molar value.
Tested on: 653999-131-R-J2-PDC complex spheroids, growth % test/control
Assay: Anticancer human tumor 653999-131-R-J2-PDC patient-derived lung adenocarcinoma cell line growth inhibition [AhR]
Details: for pIC50: curve of first compound; for viability, T/C: stronger effect = lower value
Summary of the method: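 Complex tumor spheroids co-cultured with HUVEC and human MSC stroma; AhR antagonists tested in combination with standard-of-care and investigational agents. Top concentration at or near clinical Cmax (else 10 microM), half-log dilutions; growth expressed as percent test/control.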

[1] = second compound 0.1 µM, first compound 0.0316 µM
[2] = second compound 0.1 µM, first compound 0.1 µM
[3] = second compound 0.1 µM, first compound 0.316 µM
[4] = second compound 0.1 µM, first compound 1 µM
[5] = second compound 0.1 µM, first compound 3.16 µM
[6] = second compound 0.1 µM, first compound 10 µM
[7] = second compound 0.316 µM, first compound 0.0316 µM
[8] = second compound 0.316 µM, first compound 0.1 µM
[9] = second compound 0.316 µM, first compound 0.316 µM
[10] = second compound 0.316 µM, first compound 1 µM
[11] = second compound 0.316 µM, first compound 3.16 µM
[12] = second compound 0.316 µM, first compound 10 µM
[13] = second compound 1 µM, first compound 0.0316 µM
[14] = second compound 1 µM, first compound 0.1 µM
[15] = second compound 1 µM, first compound 0.316 µM
[16] = second compound 1 µM, first compound 1 µM
[17] = second compound 1 µM, first compound 3.16 µM
[18] = second compound 1 µM, first compound 10 µM
[19] = second compound 3.16 µM, first compound 0.0316 µM
[20] = second compound 3.16 µM, first compound 0.1 µM
[21] = second compound 3.16 µM, first compound 0.316 µM
[22] = second compound 3.16 µM, first compound 1 µM
[23] = second compound 3.16 µM, first compound 3.16 µM
[24] = second compound 3.16 µM, first compound 10 µM
[25] = second compound 10 µM, first compound 0.0316 µM
[26] = second compound 10 µM, first compound 0.1 µM
[27] = second compound 10 µM, first compound 0.316 µM
[28] = second compound 10 µM, first compound 1 µM
[29] = second compound 10 µM, first compound 3.16 µM
[30] = second compound 10 µM, first compound 10 µM
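Also: spheroids exposed to agents for seven days.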
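For viability, T/C in this document: 100% = DMSO vehicle control viability.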

CC(C)c1c(-c2ccccc2)nc2c(C#N)c[nH]n2c1=O + Cc1cncc(-c2nc(NCCc3c[nH]c4ccccc34)c3ncn(C(C)C)c3n2)c1
pIC50 (second compound 0.1 µM): < 5.00 | pIC50 (second compound 0.316 µM): < 5.00 | pIC50 (second compound 1 µM): < 5.00 | pIC50 (second compound 3.16 µM): < 5.00 | pIC50 (second compound 10 µM): < 5.00 | viability, T/C [1]: 112% | viability, T/C [2]: 99.8% | viability, T/C [3]: 102% | viability, T/C [4]: 95.8% | viability, T/C [5]: 93.9% | viability, T/C [6]: 102% | viability, T/C [7]: 115% | viability, T/C [8]: 114% | viability, T/C [9]: 120% | viability, T/C [10]: 104% | viability, T/C [11]: 97.7% | viability, T/C [12]: 99.2% | viability, T/C [13]: 128% | viability, T/C [14]: 118% | viability, T/C [15]: 122% | viability, T/C [16]: 136% | viability, T/C [17]: 125% | viability, T/C [18]: 116% | viability, T/C [19]: 128% | viability, T/C [20]: 117% | viability, T/C [21]: 121% | viability, T/C [22]: 115% | viability, T/C [23]: 129% | viability, T/C [24]: 120% | viability, T/C [25]: 63.2% | viability, T/C [26]: 58.8% | viability, T/C [27]: 62.6% | viability, T/C [28]: 63.7% | viability, T/C [29]: 62.2% | viability, T/C [30]: 63.7%

CC1COCCN1c1cc(-c2ccnn2C)c2ccnc(-c3ccn[nH]3)c2n1 (stereo not given) + Cc1cncc(-c2nc(NCCc3c[nH]c4ccccc34)c3ncn(C(C)C)c3n2)c1
pIC50 (second compound 0.1 µM): 6.91 | pIC50 (second compound 0.316 µM): 6.89 | pIC50 (second compound 1 µM): 6.77 | pIC50 (second compound 3.16 µM): 6.83 | pIC50 (second compound 10 µM): > 8.50 | viability, T/C (second compound 0.1 µM, first compound 0.00316 µM): 100% | viability, T/C (second compound 0.1 µM, first compound 0.01 µM): 94.6% | viability, T/C [1]: 76.3% | viability, T/C [2]: 52.3% | viability, T/C [3]: 36.7% | viability, T/C [4]: 25.2% | viability, T/C (second compound 0.316 µM, first compound 0.00316 µM): 92.8% | viability, T/C (second compound 0.316 µM, first compound 0.01 µM): 92.4% | viability, T/C [7]: 84.8% | viability, T/C [8]: 53.5% | viability, T/C [9]: 35.5% | viability, T/C [10]: 26.4% | viability, T/C (second compound 1 µM, first compound 0.00316 µM): 107% | viability, T/C (second compound 1 µM, first compound 0.01 µM): 96.3% | viability, T/C [13]: 89.5% | viability, T/C [14]: 65.6% | viability, T/C [15]: 31.6% | viability, T/C [16]: 23.5% | viability, T/C (second compound 3.16 µM, first compound 0.00316 µM): 98.2% | viability, T/C (second compound 3.16 µM, first compound 0.01 µM): 98.1% | viability, T/C [19]: 89.6% | viability, T/C [20]: 56.2% | viability, T/C [21]: 38.5% | viability, T/C [22]: 29.1% | viability, T/C (second compound 10 µM, first compound 0.00316 µM): 36.8% | viability, T/C (second compound 10 µM, first compound 0.01 µM): 46.9% | viability, T/C [25]: 38% | viability, T/C [26]: 34.6% | viability, T/C [27]: 25.7% | viability, T/C [28]: 27%

COc1ccc([C@@H](O)c2cc(-c3ncnc4cc(N5CCOCC5)ccc34)c(F)cc2Cl)nn1 + Cc1cncc(-c2nc(NCCc3c[nH]c4ccccc34)c3ncn(C(C)C)c3n2)c1
pIC50 (second compound 0.1 µM): 5.05 | pIC50 (second compound 0.316 µM): < 5.00 | pIC50 (second compound 1 µM): < 5.00 | pIC50 (second compound 3.16 µM): < 5.00 | pIC50 (second compound 10 µM): < 5.00 | viability, T/C [1]: 97.7% | viability, T/C [2]: 121% | viability, T/C [3]: 103% | viability, T/C [4]: 82.4% | viability, T/C [5]: 72.5% | viability, T/C [6]: 46.7% | viability, T/C [7]: 121% | viability, T/C [8]: 122% | viability, T/C [9]: 102% | viability, T/C [10]: 99.9% | viability, T/C [11]: 73% | viability, T/C [12]: 54.4% | viability, T/C [13]: 116% | viability, T/C [14]: 123% | viability, T/C [15]: 122% | viability, T/C [16]: 101% | viability, T/C [17]: 87.8% | viability, T/C [18]: 61% | viability, T/C [19]: 125% | viability, T/C [20]: 119% | viability, T/C [21]: 138% | viability, T/C [22]: 93% | viability, T/C [23]: 83.3% | viability, T/C [24]: 60.5% | viability, T/C [25]: 55.7% | viability, T/C [26]: 58.9% | viability, T/C [27]: 66.2% | viability, T/C [28]: 65.7% | viability, T/C [29]: 66.3% | viability, T/C [30]: 55.5%

O=C(C=Cn1cnc(-c2cc(C(F)(F)F)cc(C(F)(F)F)c2)n1)NNc1cnccn1 + Cc1cncc(-c2nc(NCCc3c[nH]c4ccccc34)c3ncn(C(C)C)c3n2)c1
pIC50 (second compound 0.1 µM): 6.63 | pIC50 (second compound 0.316 µM): 6.53 | pIC50 (second compound 1 µM): 6.29 | pIC50 (second compound 3.16 µM): 6.42 | pIC50 (second compound 10 µM): 7.31 | viability, T/C (second compound 0.1 µM, first compound 0.00949 µM): 91.2% | viability, T/C (second compound 0.1 µM, first compound 0.03 µM): 65.8% | viability, T/C (second compound 0.1 µM, first compound 0.0949 µM): 62.2% | viability, T/C (second compound 0.1 µM, first compound 0.3 µM): 45.2% | viability, T/C (second compound 0.1 µM, first compound 0.949 µM): 43.8% | viability, T/C (second compound 0.1 µM, first compound 3 µM): 38.3% | viability, T/C (second compound 0.316 µM, first compound 0.00949 µM): 85% | viability, T/C (second compound 0.316 µM, first compound 0.03 µM): 74% | viability, T/C (second compound 0.316 µM, first compound 0.0949 µM): 64.2% | viability, T/C (second compound 0.316 µM, first compound 0.3 µM): 50.3% | viability, T/C (second compound 0.316 µM, first compound 0.949 µM): 39.3% | viability, T/C (second compound 0.316 µM, first compound 3 µM): 43.1% | viability, T/C (second compound 1 µM, first compound 0.00949 µM): 95.9% | viability, T/C (second compound 1 µM, first compound 0.03 µM): 77.8% | viability, T/C (second compound 1 µM, first compound 0.0949 µM): 66.4% | viability, T/C (second compound 1 µM, first compound 0.3 µM): 50.1% | viability, T/C (second compound 1 µM, first compound 0.949 µM): 48.4% | viability, T/C (second compound 1 µM, first compound 3 µM): 42.1% | viability, T/C (second compound 3.16 µM, first compound 0.00949 µM): 95.4% | viability, T/C (second compound 3.16 µM, first compound 0.03 µM): 86.7% | viability, T/C (second compound 3.16 µM, first compound 0.0949 µM): 74.9% | viability, T/C (second compound 3.16 µM, first compound 0.3 µM): 51.5% | viability, T/C (second compound 3.16 µM, first compound 0.949 µM): 40.9% | viability, T/C (second compound 3.16 µM, first compound 3 µM): 41% | viability, T/C (second compound 10 µM, first compound 0.00949 µM): 59.2% | viability, T/C (second compound 10 µM, first compound 0.03 µM): 49.8% | viability, T/C (second compound 10 µM, first compound 0.0949 µM): 52.2% | viability, T/C (second compound 10 µM, first compound 0.3 µM): 40% | viability, T/C (second compound 10 µM, first compound 0.949 µM): 34.9% | viability, T/C (second compound 10 µM, first compound 3 µM): 37.6%

— PubChem BioAssay AID1919000 (Molecular Pharmacology Branch, DTP, NCI, 2023)
